Results reported in patent publication US12478605B2, “Biochanin a derivatives for treatment of BEST1-related retinopathies” (Universität Regensburg, priority 2020, dated 2025).
Counter-ions that a name gives are not always drawn.

Columns and labels:
mutant BEST1 R218C [1] = target: T1, mutant BEST1 R218C (Homo sapiens, UniProt O76090, R218C); test: YFP-based I- efflux assay in MDCKII cells co-expressing YFP and mutant BEST1 R218C; assay type: cell-based; details: 5 μM, compound addition for 24 h, FIGS. 6-8
T1 construct: expressed in transfected cells
T1 sequence (O76090 1-585 R218C): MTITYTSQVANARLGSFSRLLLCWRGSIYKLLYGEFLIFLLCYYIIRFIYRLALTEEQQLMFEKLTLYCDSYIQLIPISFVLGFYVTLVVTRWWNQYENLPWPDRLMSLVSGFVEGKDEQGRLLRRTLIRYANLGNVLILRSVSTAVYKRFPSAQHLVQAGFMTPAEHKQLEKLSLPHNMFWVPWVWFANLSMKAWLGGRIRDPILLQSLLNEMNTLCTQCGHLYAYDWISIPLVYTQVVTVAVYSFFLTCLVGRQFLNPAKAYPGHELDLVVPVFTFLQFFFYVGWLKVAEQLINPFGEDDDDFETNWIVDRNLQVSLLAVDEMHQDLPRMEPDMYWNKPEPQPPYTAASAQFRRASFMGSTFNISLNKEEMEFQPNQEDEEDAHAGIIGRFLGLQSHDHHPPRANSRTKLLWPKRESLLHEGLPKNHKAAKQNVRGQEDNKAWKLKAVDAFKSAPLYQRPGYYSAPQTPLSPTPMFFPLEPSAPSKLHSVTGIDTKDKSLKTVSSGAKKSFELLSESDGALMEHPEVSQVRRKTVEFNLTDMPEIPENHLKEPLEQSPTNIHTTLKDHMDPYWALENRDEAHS
Experimental: MDCKII cells co-expressing yellow fluorescence protein (YFP) and mutant BEST1 R218C were seeded on black 96-well plates and cultivated for 6 days to achieve polarity, a crucial requirement for correct basolateral localization of BEST1 in epithelial cells. Compounds were tested at 5 μM concentration in a 96-well format. After compound addition for 24 h, cells were subjected to an outwardly directed iodid (I^−)-gradient to drive BEST1-mediated I^− efflux and produce increasing fluorescence signals. Each assay consisted of recording of YFP quenching after I^− pre-incubation for 6 min (=100% value), followed by 7 min of recording of increasing fluorescence after addition of the chloride (Cr) containing solution. Changes of fluorescence intensities were monitored on a plate reader. The effect on the kinetics of I— efflux was tested for Biochanin A (FIG. 6A), Trimethoxyisoflavone (FIG. 6B), 5,4-dimethoxy hydroxyisoflavone (FIG. 6C), Biochanin A-7-methyl ether (FIG. 6D), Biochanin A-7-acetate (FIG. 6E), Biochanin A diacetate (FIG. 6F), Biochanin A-7-pentanoate (FIG. 6G), Biochanin A dipentanoate (FIG. 6H), Biochanin A-7-pivalate (FIG. 7A), Biochanin A-dipavalate (FIG. 7B), Biochanin A-7-acrylate (FIG. 7C), Biochanin A diacrylate (FIG. 7D), Biochanin A-7-methyl fumarate (FIG. 7E), Biochanin A-di(methyl fumarate) (FIG. 7F), Biochanin A-7-butylcarbamate (FIG. 7G), Biochanin A di(butylcarbamate) (FIG. 7H), Biochanin A-7-phosphate disodium salt (FIG. 8A), Biochanin A-7-isopropylate (FIG. 8B), 7-pivaloxymethyl-Biochanin A (FIG. 8C), Biochanin A diisopropylate (FIG. 8D), Biochanin A-7-isopropyl carbonate (FIG. 8E), Biochanin A diisopropyl carbonate (FIG. 8F), Isopropyloxycarbonylmethoxy-Biochanin A (FIG. 8G).

mutant BEST1 R218C [2] = target: T1, mutant BEST1 R218C; test: YFP-halide transport assay (I- influx), MDCKII cells expressing mutant BEST1-R218C; assay type: cell-based; details: MDCKII cells; cell line not stated; FIG. 4D
Experimental: Human hiPSC-RPE or MDCKII cells were transduced via lentivirus particles which were produced by co-transfecting HEK293T cells with the yellow fluorescence protein (YFPH148Q/I152L)-pLJM1 and helper plasmids pMD2.G and psPAX2 using the Ca^2+ phospate transfection method. After six weeks of cultivation in 96-well black microtiter plates, cells were incubated with 100 mM Cl^− containing solution and basal YFP fluorescence was measured in a Tecan microplate reader. Subsequently Cl^− was replaced with equimolar I^− and decrease of YFP fluorescence intensity was monitored for another 2 min in 10 sec intervals.
To analyze BEST1-mediated anion transport in the cell lines generated in the previous examples, a well-established halide transport assay (Galietta et al., 2001) was adapted. […] Addition of I— leads to specific YFP quenching over time and changes of fluorescence intensities can be monitored on a plate reader. MDCKII cells were incubated with 100 mM Cl— containing solution and steady state YFP fluorescence signal intensities were measured after 6 minutes. Subsequently, Cl— was replaced by equimolar I— and anion permeability was monitored by decreasing YFP intensities as a result of BEST1-mediated I— influx in a time course up to 2 minutes (FIG. 2B). For several independent BEST1 wildtype cell lines a fast kinetic of decreasing fluorescence intensities to ˜30 to 40% was observed while the untransfected control cell lines remained flat (FIGS. 2C and D).
Example 8—Evaluation of BioA(C2H3O2)2 activity in MDCKII cells MDCKII cells co-expressing YFP and BEST1 wildtype or mutant p.(R218C) were seeded on black 96-well plates and cultivated for 6 days to achieve polarity, a requirement for correct basolateral localization of BEST1 in epithelial cells. Compounds were tested separately at 10 μM concentration in a 96-well format. After compound addition for 24 h, cells were subjected to an inwardly directed I— gradient to drive I— influx and produce decreasing (quenched) fluorescence signals. […]

Row | SMILES | anion transport activity (kinetics of I- efflux) in comparison to untreated cells (mutant BEST1 R218C [1]) | effect on BEST1-mediated I- influx (mutant BEST1 R218C [2])
1 | COc1ccc(-c2coc3cc(OC(=O)C(C)C)cc(OC(=O)C(C)C)c3c2=O)cc1 [Biochanin A diisopropylate] | strongly increased | 
2 | COc1ccc(-c2coc3cc(OC(=O)OC(C)C)cc(OC(=O)OC(C)C)c3c2=O)cc1 [Biochanin A diisopropyl carbonate] | strongly increased | 
3 | CCCCC(=O)Oc1cc(O)c2c(=O)c(-c3ccc(OC)cc3)coc2c1 [Biochanin A-7-pentanoate] | no or only minimal effect | 
4 | COc1ccc(-c2coc3cc(OC(C)=O)cc(O)c3c2=O)cc1 [Biochanin A-7-acetate] | no or only minimal effect | 
5 | COc1ccc(-c2coc3cc(OC(=O)C(C)(C)C)cc(OC(=O)C(C)(C)C)c3c2=O)cc1 [Biochanin A-dipavalate, Biochanin A dipivalate] | noticeable increased | 
6 | COc1ccc(-c2coc3cc(OC(=O)OC(C)C)cc(O)c3c2=O)cc1 [Biochanin A-7-isopropyl carbonate] | strongly increased | 
7 | C=CC(=O)Oc1cc(OC(=O)C=C)c2c(=O)c(-c3ccc(OC)cc3)coc2c1 [Biochanin A diacrylate] | strongly increased | 
8 | COc1ccc(-c2coc3cc(OC)cc(O)c3c2=O)cc1 [Biochanin A-7-methyl ether] | no or only minimal effect | 
9 | C=CC(=O)Oc1cc(O)c2c(=O)c(-c3ccc(OC)cc3)coc2c1 [Biochanin A-7-acrylate] | noticeable increased | 
10 | COc1ccc(-c2coc3cc(OCOC(=O)OC(C)C)cc(O)c3c2=O)cc1 | noticeable increased | 
11 | CCCCNC(=O)Oc1cc(OC(=O)NCCCC)c2c(=O)c(-c3ccc(OC)cc3)coc2c1 [Biochanin A di(butylcarbamate)] | strongly increased | 
12 | CCCCNC(=O)Oc1cc(O)c2c(=O)c(-c3ccc(OC)cc3)coc2c1 [Biochanin A-7-butylcarbamate] | no or only minimal effect | 
13 | CCCCC(=O)Oc1cc(OC(=O)CCCC)c2c(=O)c(-c3ccc(OC)cc3)coc2c1 [Biochanin A dipentanoate] | strongly increased | 
14 | COc1ccc(-c2coc3cc(O)cc(OC)c3c2=O)cc1 [5,4-dimethoxy-7-hydroxyisoflavone] | no or only minimal effect | 
15 | COc1ccc(-c2coc3cc(OC(=O)C(C)(C)C)cc(O)c3c2=O)cc1 [Biochanin A-7-pivalate] | no or only minimal effect | 
16 | COc1ccc(-c2coc3cc(O)cc(O)c3c2=O)cc1 [Biochanin A] | no or only minimal effect | no effect
17 | COC(=O)/C=C/C(=O)Oc1cc(OC(=O)/C=C/C(=O)OC)c2c(=O)c(-c3ccc(OC)cc3)coc2c1 [Biochanin A-di(methyl fumarate), Biochanin A di(methyl fumarate)] | strongly increased | 
18 | COc1ccc(-c2coc3cc(OP(=O)([O-])[O-])cc(O)c3c2=O)cc1.[Na+].[Na+] [Biochanin A-7-phosphate disodium salt] | noticeable increased | 
19 | COc1ccc(-c2coc3cc(OC(=O)C(C)C)cc(O)c3c2=O)cc1 [Biochanin A-7-isopropylate] | no or only minimal effect | 
20 | COc1ccc(-c2coc3cc(OCOC(=O)C(C)(C)C)cc(O)c3c2=O)cc1 [7-pivaloxymethyl-Biochanin A, 7-Pivaloxymethyl-Biochanin A] | noticeable increased | 
21 | COC(=O)/C=C/C(=O)Oc1cc(O)c2c(=O)c(-c3ccc(OC)cc3)coc2c1 [Biochanin A-7-methyl fumarate] | no or only minimal effect | 
